The results in this text go back to US10266548B2, “Substituted benzylindazoles for use as Bub1 kinase inhibitors in the treatment of hyperproliferative diseases” (Bayer Intellectual Property GmbH, priority 2011, dated 2019).

Read-outs that look alike come from different tables or passages of the source.

Assay [1] has as its target catalytic domain of human Bub1 (amino acids 704-1085) (Homo sapiens (Human), UniProt O43683). The assay is described as follows: Bub1 kinase assay (TR-FRET). It is filed as biochemical. The following applies: 10 μM ATP, 1 μM peptide substrate; read-out: Biological Assay 1: Bub1 kinase assay median IC50. Summed up: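 Phosphoserine product detected by TR-FRET (Eu-labeled anti-mouse IgG/anti-phosphoserine antibody to streptavidin-XL665) after 1 h at 22 °C. IC50 from 4-parameter logistic fit.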
(Time-resolved FRET reads energy transfer from a long-lived donor to a nearby acceptor.)

A further assay has as its system HeLa cells. Nature of the assay: Proliferation assay (HeLa cell line). It is filed as cell-based. The note with it: 4 days, crystal violet, read-out: Biological Assay 2: Proliferation assay (HeLa cell line) median IC50.
In the next assay the test system is HeLa-MaTu-ADR cells. Nature of the assay: Proliferation assay (HeLa-MaTu-ADR cell line). The class given is cell-based. The following applies: 96 h; HeLa-MaTu-ADR, 4 days, crystal violet; read-out: Biological Assay 2: Proliferation assay (HeLa-MaTu-ADR cell line) median IC50. As for the experimental part: (§1) Cultivated tumor cells (cells were ordered from ATCC, except HeLa-MaTu and HeLa-MaTu-ADR, which were ordered from EPO-GmbH, Berlin) were plated at a density of 1000 to 5000 cells/well, depending on the growth rate of the respective cell line, in a 96-well multititer plate in 200 μL of their respective growth medium supplemented 10% fetal calf serum. After 24 hours, the cells of one plate (zero-point plate) were stained with crystal violet (see below), while the medium of the other plates was replaced by fresh culture medium (200 μl), to which the test substances were added in various concentrations (0 μM, as well as in the range of 0.001-10 μM; the final concentration of the solvent dimethyl sulfoxide was 0.5%). The cells were incubated for 4 days in the presence of test substances. Cell proliferation was determined by staining the cells with crystal violet: the cells were fixed by adding 20 μl/measuring point of an 11% glutaric aldehyde solution for 15 minutes at room temperature. After three washing cycles of the fixed cells with water, the plates were dried at room temperature. The cells were stained by adding 100 μl/measuring point of a 0.1% crystal violet solution (pH 3.0). After three washing cycles of the stained cells with water, the plates were dried at room temperature. The dye was dissolved by adding 100 μl/measuring point of a 10% acetic acid solution. […] The change of cell number, in percent, was calculated by normalization of the measured values to the aborbtion values of the zero-point plate (=0%) and the absorbtion of the untreated (0 μm) cells (=100%). The IC50 values were determined by means of a 4 parameter fit using the company's own software.

For a further assay, the system named is MCF7 cells. The assay is described as follows: Proliferation assay (MCF7 cell line). The class given is cell-based. The following applies: Homo sapiens, 96 h; MCF7, 4 days, crystal violet; read-out: Biological Assay 2: Proliferation assay (MCF7 cell line) median IC50. As for the experimental part:
Cultivated tumor cells (cells were ordered from ATCC, except HeLa-MaTu and HeLa-MaTu-ADR, which were ordered from EPO-GmbH, Berlin) were plated at a density of 1000 to 5000 cells/well, depending on the growth rate of the respective cell line, in a 96-well multititer plate in 200 μL of their respective growth medium supplemented 10% fetal calf serum. After 24 hours, the cells of one plate (zero-point plate) were stained with crystal violet (see below), while the medium of the other plates was replaced by fresh culture medium (200 μl), to which the test substances were added in various concentrations (0 μM, as well as in the range of 0.001-10 μM; the final concentration of the solvent dimethyl sulfoxide was 0.5%). The cells were incubated for 4 days in the presence of test substances. Cell proliferation was determined by staining the cells with crystal violet: the cells were fixed by adding 20 μl/measuring point of an 11% glutaric aldehyde solution for 15 minutes at room temperature. […] Absorbtion was determined by photometry at a wavelength of 595 nm. The change of cell number, in percent, was calculated by normalization of the measured values to the aborbtion values of the zero-point plate (=0%) and the absorbtion of the untreated (0 μm) cells (=100%). The IC50 values were determined by means of a 4 parameter fit using the company's own software.

A further assay has as its system NCI-H460 cells. The assay is described as follows: Proliferation assay (H460 cell line). The class given is cell-based. The following applies: Homo sapiens, NCI-H460, 96 h, H460, 4 days, crystal violet; read-out: Biological Assay 2: Proliferation assay (H460 cell line) median IC50. The procedure:
as §1

A further assay has as its system DU145 cells. Nature of the assay: Proliferation assay (DU145 cell line). The class given is cell-based. The following applies: Homo sapiens, DU-145, 96 h, DU145, 4 days, crystal violet; read-out: Biological Assay 2: Proliferation assay (DU145 cell line) median IC50. As for the experimental part: as §1
The next assay concerns Caco2 cells. The assay is described as follows: Proliferation assay (Caco2 cell line). The class given is cell-based. The following applies: Homo sapiens, Caco-2, 96 h; Caco2, 4 days, crystal violet; read-out: Biological Assay 2: Proliferation assay (Caco2 cell line) median IC50. As for the experimental part: as §1
For a further assay, the system named is B16F10 cells. The assay is described as follows: Proliferation assay (B16F10 cell line). It is filed as cell-based. The following applies: Mus musculus, B16-F10, 96 h, B16F10, 4 days, crystal violet; read-out: Biological Assay 2: Proliferation assay (B16F10 cell line) median IC50. As for the experimental part:
as §1

catalytic domain of human Bub1 (amino acids 704-1085), sequence (O43683 704-1085): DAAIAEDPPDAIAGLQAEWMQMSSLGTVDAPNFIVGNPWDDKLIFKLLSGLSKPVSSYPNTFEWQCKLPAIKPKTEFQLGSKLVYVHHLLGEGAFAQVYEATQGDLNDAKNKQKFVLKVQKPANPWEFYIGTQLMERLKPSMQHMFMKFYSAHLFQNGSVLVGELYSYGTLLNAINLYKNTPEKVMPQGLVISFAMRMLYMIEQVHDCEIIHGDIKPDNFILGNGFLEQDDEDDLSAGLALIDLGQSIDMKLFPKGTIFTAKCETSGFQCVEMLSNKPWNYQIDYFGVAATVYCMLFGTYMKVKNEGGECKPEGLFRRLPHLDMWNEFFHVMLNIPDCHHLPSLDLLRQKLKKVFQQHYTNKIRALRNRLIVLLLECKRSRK

As to `CCOc1cc(F)c(Cn2nc(-c3ncc(OC)c(Nc4ccncc4)n3)c3ccccc32)c(F)c1` [Example 2-5-1, 2-[1-(4-ethoxy-2,6-difluorobenzyl)-1H-indazol-3-yl]-5-methoxy-N-(pyridin-4-yl)pyrimidin-4-amine], the IC50 amounted to 4.6 nM in assay [1]; 2100 nM in the assay on HeLa cells; 1200 nM with HeLa-MaTu-ADR cells; 3100 nM in the assay on MCF7 cells; 1400 nM in the assay with NCI-H460 cells; 1700 nM with DU145 cells. The IC50 with Caco2 cells worked out at 1200 nM; in the assay on B16F10 cells, 1100 nM.
For the compound `COC(=O)c1ccc(Cl)c(Cn2nc(-c3ncc(OC)c(Nc4ccncc4)n3)c3ccccc32)c1Cl` [Example 2-16-1, methyl 2,4-dichloro-3-({3-[5-methoxy-4-(pyridin-4-ylamino)pyrimidin-2-yl]-1H-indazol-1-yl}methyl)benzoate], the IC50 in assay [1] worked out at 8.4 nM; in the assay on HeLa cells (Homo sapiens, 96 h) it was 1600 nM; in the assay with HeLa-MaTu-ADR cells, 1200 nM; in the assay with MCF7 cells, 2000 nM; in the assay on NCI-H460 cells, 2900 nM; with DU145 cells, 2000 nM. Besides, the IC50 stood at 2600 nM in the assay on Caco2 cells and 990 nM in the assay with B16F10 cells.
